Key:
[1] = target: DGKζ (Homo sapiens (Human), UniProt Q13574); test: In vitro DGKζ inhibition assay (ADP-Glo); assay type: biochemical; conditions: His-tagged human recombinant enzyme, 0.4 nM DGK, 30 μM ATP, 20 μM DLG, 90 minute incubation
Method in brief: (§1)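 His-tagged human DGKα (0.1 nM, 50 μM ATP) or DGKζ (0.4 nM, 30 μM ATP), each with 20 μM DLG, in Tris pH 7.5 buffer with CHAPS, Mg2+, Ca2+.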

[2] = target: DGKα (Homo sapiens (Human), UniProt P23743); test: In vitro DGKα inhibition assay (ADP-Glo); assay type: biochemical; conditions: His-tagged human recombinant enzyme, 0.1 nM DGKα, 50 μM ATP, 20 μM DLG, 90 minute incubation
Sequence of DGKα (P23743 whole entry): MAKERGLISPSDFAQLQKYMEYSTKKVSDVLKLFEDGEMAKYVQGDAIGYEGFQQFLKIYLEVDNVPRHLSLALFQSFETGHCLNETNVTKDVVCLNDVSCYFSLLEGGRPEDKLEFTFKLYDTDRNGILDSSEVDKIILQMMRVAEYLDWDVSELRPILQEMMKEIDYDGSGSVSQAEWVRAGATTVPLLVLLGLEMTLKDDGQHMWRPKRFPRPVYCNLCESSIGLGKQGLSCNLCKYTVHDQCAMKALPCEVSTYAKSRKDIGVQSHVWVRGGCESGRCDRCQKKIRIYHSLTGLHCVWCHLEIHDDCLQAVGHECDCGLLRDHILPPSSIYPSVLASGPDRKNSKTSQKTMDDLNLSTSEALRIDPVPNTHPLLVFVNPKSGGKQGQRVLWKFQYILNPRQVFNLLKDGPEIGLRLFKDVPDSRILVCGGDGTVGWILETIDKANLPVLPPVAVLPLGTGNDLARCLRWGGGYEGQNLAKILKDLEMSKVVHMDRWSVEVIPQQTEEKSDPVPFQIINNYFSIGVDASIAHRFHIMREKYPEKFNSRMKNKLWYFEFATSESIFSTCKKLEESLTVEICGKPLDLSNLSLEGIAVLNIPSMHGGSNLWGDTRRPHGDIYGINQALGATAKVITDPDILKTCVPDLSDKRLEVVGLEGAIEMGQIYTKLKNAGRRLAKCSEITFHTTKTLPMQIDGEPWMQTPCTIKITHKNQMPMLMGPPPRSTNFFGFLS
Method in brief: as §1

Sequence of DGKζ (Q13574 whole entry): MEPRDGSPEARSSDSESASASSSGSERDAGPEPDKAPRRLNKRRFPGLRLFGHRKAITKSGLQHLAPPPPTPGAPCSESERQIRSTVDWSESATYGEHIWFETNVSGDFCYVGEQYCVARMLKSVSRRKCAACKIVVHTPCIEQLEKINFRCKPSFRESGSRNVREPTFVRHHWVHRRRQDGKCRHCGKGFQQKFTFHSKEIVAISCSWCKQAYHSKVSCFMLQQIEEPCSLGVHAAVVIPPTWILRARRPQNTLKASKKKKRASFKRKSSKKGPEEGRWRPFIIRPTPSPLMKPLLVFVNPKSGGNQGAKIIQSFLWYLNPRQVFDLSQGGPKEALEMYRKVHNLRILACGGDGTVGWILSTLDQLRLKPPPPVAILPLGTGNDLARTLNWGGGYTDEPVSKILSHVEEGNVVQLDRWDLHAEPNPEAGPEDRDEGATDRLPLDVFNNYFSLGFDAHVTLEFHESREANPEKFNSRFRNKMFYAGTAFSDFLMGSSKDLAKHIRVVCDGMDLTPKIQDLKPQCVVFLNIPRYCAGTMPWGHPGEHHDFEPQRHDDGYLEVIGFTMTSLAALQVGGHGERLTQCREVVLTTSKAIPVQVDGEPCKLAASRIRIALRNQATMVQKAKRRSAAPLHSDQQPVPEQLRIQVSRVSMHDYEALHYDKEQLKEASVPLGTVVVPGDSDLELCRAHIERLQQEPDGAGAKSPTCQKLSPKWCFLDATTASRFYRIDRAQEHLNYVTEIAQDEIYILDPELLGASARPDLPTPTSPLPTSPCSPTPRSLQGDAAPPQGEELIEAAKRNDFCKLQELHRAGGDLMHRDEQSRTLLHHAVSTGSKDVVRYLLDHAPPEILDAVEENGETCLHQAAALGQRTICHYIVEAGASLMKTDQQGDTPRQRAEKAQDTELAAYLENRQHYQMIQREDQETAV

| SMILES | IC50 [1] | IC50 [2] |
| --- | --- | --- |
| Cc1nc2c(N3C[C@@H](C)N([C@H](c4cccc(Cl)c4)C(C)C)C[C@@H]3C)nc3nncn3c2n1C[C@@H]1CCCO1 [Example 96, 4-((2S,5R)-4-((S)-1-(3-Chlorophenyl)-2-methylpropyl)-2,5-dimethylpiperazin-1-yl)-2-methyl-1-(((S)-tetrahydrofuran-2-yl)methyl)-1H-[1,2,4]triazolo[3,4-b]purine] | ≤ 20 nM | ≤ 20 nM |
| Cc1nc2c(N3C[C@@H](C)N([C@@H](c4cccc(Cl)c4)C(C)C)C[C@@H]3C)nc3nncn3c2n1C[C@@H]1CCCO1 [Example 97, 4-((2S,5R)-4-((R)-1-(3-chlorophenyl)-2-methylpropyl)-2,5-dimethylpiperazin-1-yl)-2-methyl-1-(((S)-tetrahydrofuran-2-yl)methyl)-1H-[1,2,4]triazolo[3,4-b]purine] | ≤ 20 nM | ≤ 20 nM |
| Cc1nc2c(N3C[C@@H](C)N(C(c4ccc(C(F)F)c(F)c4)C4CC(F)(F)C4)C[C@@H]3C)nc3nncn3c2n1C[C@@H]1CCCO1 (stereo partly drawn) [Example 135, 4-((2S,5R)-4-((3,3-Difluorocyclobutyl)(4-(difluoromethyl)-3-fluorophenyl)methyl)-2,5-dimethylpiperazin-1-yl)-2-methyl-1-(((S)-tetrahydrofuran-2-yl)methyl)-1H-[1,2,4]triazolo[3,4-b]purine] | ≤ 20 nM | ≤ 20 nM |
| Cc1nc2c(N3C[C@@H](CO)N(C(c4ccc(C(F)(F)F)cc4)C4CC(F)(F)C4)C[C@@H]3C)nc3nncn3c2n1C[C@@H]1CCCO1 (stereo partly drawn) [Example 122, ((2S,5S)-1-((3,3-Difluorocyclobutyl)(4-(trifluoromethyl)phenyl)methyl)-5-methyl-4-(2-methyl-1-(((S)-tetrahydrofuran-2-yl)methyl)-1H-[1,2,4]triazolo[3,4-b]purin-4-yl)piperazin-2-yl)methanol] | ≤ 20 nM | ≤ 20 nM |
| CC[C@H]1CN(C(c2ccc(F)cc2)c2ccc(F)cc2)[C@H](CC)CN1c1nc2nncn2c2c1ncn2CC1CC1 [Example 21, 4-((2S,5R)-4-(Bis(4-fluorophenyl)methyl)-2,5-diethylpiperazin-1-yl)-1-(cyclopropylmethyl)-1H-[1,2,4]triazolo[3,4-b]purine] | ≤ 20 nM | ≤ 20 nM |
| Cc1nc2c(N3C[C@@H](C)N([C@@H](c4ccc(C(F)(F)F)cc4)C(C)C)C[C@@H]3C)nc3nncn3c2n1C[C@@H]1CCCO1 [Example 68, 4-((2S,5R)-2,5-dimethyl-4-((R)-2-methyl-1-(4-(trifluoromethyl)phenyl)propyl)piperazin-1-yl)-2-methyl-1-(((S)-tetrahydrofuran-2-yl)methyl)-1H-[1,2,4]triazolo[3,4-b]purine] | ≤ 20 nM | ≤ 20 nM |
